Test results taken from ChEMBL document CHEMBL5137115, “Insights into the Metabolomic Capacity of Podaxis and Isolation of Podaxisterols A-D, Ergosterol Derivatives Carrying Nitrosyl Cyanide-Derived Modifications” (J Nat Prod, 2022).
Activity calls are given as the source filed them.

Key:
Assay type in all cases: functional, organism-based
Bacillus subtilis = test: Antimicrobial activity against Bacillus subtilis 6633 assessed as inhibition zone at 0.5 mg/ml by […]
Staphylococcus aureus [1] = test: Antimicrobial activity against Staphylococcus aureus SG511 assessed as inhibition zone at 0.5 mg/ml by […]
Enterococcus faecalis = test: Antimicrobial activity against Enterococcus faecalis 1528 assessed as inhibition zone at 0.5 mg/ml by […]
Staphylococcus aureus [2] = test: Antimicrobial activity against Staphylococcus aureus 134/94 assessed as inhibition zone at 0.5 mg/ml by […]
Mycolicibacterium vaccae = test: Antimicrobial activity against Mycobacterium vaccae 10670 assessed as inhibition zone at 0.5 mg/ml by […]

Measured: Activity

CC(C)[C@@H](C)/C=C/[C@@H](C)[C@H]1CC[C@H]2C3=CC=C4C[C@@H](O)CC[C@]4(C)[C@H]3CC[C@]12C
active: all assays above
